From patent publication US8795992B2, “Yeast with increased butanol tolerance involving cell wall integrity pathway” (Butamax Advanced Biofuels LLC, priority 2008, dated 2014)

What was measured:
[1] = system: Δslt2/Δslt2 (BY4743 having homozygous deletion of the SLT2 gene); assay: Growth of Δslt2 strain in isobutanol (growth yield, OD600); assay type: cell-based, Saccharomyces cerevisiae; conditions: 1 day (20 hr), 30° C.
BY4743 = assay: Growth of BY4743 in isobutanol (growth yield, OD600); assay type: cell-based, Saccharomyces cerevisiae; conditions: 1 day (20 hr), 30° C.

SMILES: CC(C)CO [isobutanol]
- OD (A600) ([1]; 0.25 wt % isobutanol): 0.07
- OD (A600) ([1]; 0.50 wt % isobutanol): 0.03
- OD (A600) ([1]; 0.75 wt % isobutanol): 0.03
- OD (A600) ([1]; 0.87 wt % isobutanol): 0.01
- OD (A600) ([1]; 1.00 wt % isobutanol): 0.01
- OD (A600) ([1]; 1.25 wt % isobutanol): 0.02
- OD (A600) ([1]; 1.50 wt % isobutanol): 0.02
- OD (A600) (BY4743; 0.25 wt % isobutanol): >1
- OD (A600) (BY4743; 0.50 wt % isobutanol): >1
- OD (A600) (BY4743; 0.75 wt % isobutanol): 0.07
- OD (A600) (BY4743; 0.87 wt % isobutanol): 0.07
- OD (A600) (BY4743; 1.00 wt % isobutanol): 0.04
- OD (A600) (BY4743; 1.25 wt % isobutanol): 0.02
- OD (A600) (BY4743; 1.50 wt % isobutanol): 0.04
